Results reported in PubChem BioAssay (NCI).
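Abbreviation: GI50, concentration required for 50% inhibition of growth. The concentration for full growth arrest is given as TGI.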

How the values were obtained:
Assay in all cases: NCI-60 cell line screen, 384-well format
SK-OV-3 ovarian = tested on: SK-OV-3 ovarian
KM12 colon = tested on: KM12 colon
MALME-3M melanoma = tested on: MALME-3M melanoma
HCT-116 colon = tested on: HCT-116 colon
SNB-75 CNS = tested on: SNB-75 CNS
OVCAR-4 ovarian = tested on: OVCAR-4 ovarian
NCI-H23 lung = tested on: NCI-H23 lung
LOX IMVI melanoma = tested on: LOX IMVI melanoma
NCI-H522 lung = tested on: NCI-H522 lung
OVCAR-5 ovarian = tested on: OVCAR-5 ovarian
786-0 renal = tested on: 786-0 renal
HCT-15 colon = tested on: HCT-15 colon
CAKI-1 renal = tested on: CAKI-1 renal
OVCAR-3 ovarian = tested on: OVCAR-3 ovarian
SW-620 colon = tested on: SW-620 colon
ACHN renal = tested on: ACHN renal
HL-60(TB) leukemia = tested on: HL-60(TB) leukemia
SK-MEL-2 melanoma = tested on: SK-MEL-2 melanoma
K-562 leukemia = tested on: K-562 leukemia
PC-3 prostate = tested on: PC-3 prostate
SF-295 CNS = tested on: SF-295 CNS
DU-145 prostate = tested on: DU-145 prostate
UACC-257 melanoma = tested on: UACC-257 melanoma
SN12C renal = tested on: SN12C renal
EKVX NSCLC = tested on: EKVX NSCLC
COLO 205 colon = tested on: COLO 205 colon
BT-549 breast = tested on: BT-549 breast
IGROV1 ovarian = tested on: IGROV1 ovarian
HOP-92 NSCLC = tested on: HOP-92 NSCLC
MOLT-4 leukemia = tested on: MOLT-4 leukemia
NCI-H226 lung = tested on: NCI-H226 lung
SF-268 CNS = tested on: SF-268 CNS
TK-10 renal = tested on: TK-10 renal
OVCAR-8 ovarian = tested on: OVCAR-8 ovarian
HT29 colon = tested on: HT29 colon
UACC-62 melanoma = tested on: UACC-62 melanoma
NCI-H460 NSCLC = tested on: NCI-H460 NSCLC
MCF7 breast = tested on: MCF7 breast
U251 glioblastoma = tested on: U251 glioblastoma
HCC-2998 colon = tested on: HCC-2998 colon
MDA-MB-435 melanoma = tested on: MDA-MB-435 melanoma
UO-31 renal = tested on: UO-31 renal
NCI-H322M lung = tested on: NCI-H322M lung
M14 melanoma = tested on: M14 melanoma
A549 NSCLC = tested on: A549 NSCLC
T-47D breast = tested on: T-47D breast
RXF 393 renal = tested on: RXF 393 renal
HOP-62 NSCLC = tested on: HOP-62 NSCLC
SF-539 CNS = tested on: SF-539 CNS
MDA-MB-468 breast = tested on: MDA-MB-468 breast
A498 renal = tested on: A498 renal
MDA-MB-231 breast = tested on: MDA-MB-231 breast
HS 578T breast = tested on: HS 578T breast
SNB-19 CNS = tested on: SNB-19 CNS
SK-MEL-28 melanoma = tested on: SK-MEL-28 melanoma

O=C(CCCCCCC(=O)Nc1ccccc1)NO
GI50 (SK-OV-3 ovarian): 1680 nM | TGI (SK-OV-3 ovarian): 4.15 µM | GI50 (KM12 colon): 329 nM | TGI (KM12 colon): 10.7 µM | GI50 (MALME-3M melanoma): 400 nM | TGI (MALME-3M melanoma): 1460 nM | GI50 (HCT-116 colon): 461 nM | TGI (HCT-116 colon): 1730 nM | GI50 (SNB-75 CNS): 399 nM | TGI (SNB-75 CNS): 2630 nM | GI50 (OVCAR-4 ovarian): 3.15 µM | TGI (OVCAR-4 ovarian): 8.55 µM | GI50 (NCI-H23 lung): 1370 nM | TGI (NCI-H23 lung): 3.99 µM | GI50 (LOX IMVI melanoma): 1450 nM | TGI (LOX IMVI melanoma): 2790 nM | GI50 (NCI-H522 lung): 431 nM | TGI (NCI-H522 lung): 1780 nM | GI50 (OVCAR-5 ovarian): 853 nM | TGI (OVCAR-5 ovarian): 3.05 µM | GI50 ([…]-0 renal): 2190 nM | TGI (786-0 renal): 10.4 µM | GI50 (HCT-15 colon): 2530 nM | TGI (HCT-15 colon): 10.3 µM | GI50 (CAKI-1 renal): 704 nM | TGI (CAKI-1 renal): 2120 nM | GI50 (OVCAR-3 ovarian): 1570 nM | TGI (OVCAR-3 ovarian): 4.24 µM | GI50 (SW-620 colon): 948 nM | TGI (SW-620 colon): 2270 nM | GI50 (ACHN renal): 1330 nM | TGI (ACHN renal): 3.59 µM | GI50 (HL-60(TB) leukemia): 348 nM | TGI (HL-60(TB) leukemia): 733 nM | GI50 (SK-MEL-2 melanoma): 369 nM | TGI (SK-MEL-2 melanoma): 982 nM | GI50 (K-562 leukemia): 408 nM | TGI (K-562 leukemia): 1490 nM | GI50 (PC-3 prostate): 1480 nM | TGI (PC-3 prostate): 3.93 µM | GI50 (SF-295 CNS): 1810 nM | TGI (SF-295 CNS): 6.07 µM | GI50 (DU-145 prostate): 729 nM | TGI (DU-145 prostate): 2320 nM | GI50 (UACC-257 melanoma): 626 nM | TGI (UACC-257 melanoma): 2450 nM | GI50 (SN12C renal): 1810 nM | TGI (SN12C renal): 4.22 µM | GI50 (EKVX NSCLC): 3.8 µM | TGI (EKVX NSCLC): 28.5 µM | GI50 (COLO 205 colon): 1480 nM | TGI (COLO 205 colon): 2930 nM | GI50 (BT-549 breast): 2490 nM | TGI (BT-549 breast): 7.02 µM | GI50 (IGROV1 ovarian): 886 nM | TGI (IGROV1 ovarian): 2350 nM | GI50 (HOP-92 NSCLC): 1610 nM | TGI (HOP-92 NSCLC): 3.98 µM | GI50 (MOLT-4 leukemia): 190 nM | TGI (MOLT-4 leukemia): 444 nM | GI50 (NCI-H226 lung): 3.93 µM | TGI (NCI-H226 lung): 16.8 µM | GI50 (SF-268 CNS): 1250 nM | TGI (SF-268 CNS): 2810 nM | GI50 (TK-10 renal): 1270 nM | TGI (TK-10 renal): 4.85 µM | GI50 (OVCAR-8 ovarian): 486 nM | TGI (OVCAR-8 ovarian): 2400 nM | GI50 (HT29 colon): 1370 nM | TGI (HT29 colon): 3.12 µM | GI50 (UACC-62 melanoma): 467 nM | TGI (UACC-62 melanoma): 1570 nM | GI50 (NCI-H460 NSCLC): 876 nM | TGI (NCI-H460 NSCLC): 4.81 µM | GI50 (MCF7 breast): 1020 nM | TGI (MCF7 breast): 2490 nM | GI50 (U251 glioblastoma): 1300 nM | TGI (U251 glioblastoma): 2860 nM | GI50 (HCC-2998 colon): 1650 nM | TGI (HCC-2998 colon): 3.98 µM | GI50 (MDA-MB-435 melanoma): 1540 nM | TGI (MDA-MB-435 melanoma): 3.39 µM | GI50 (UO-31 renal): 2150 nM | TGI (UO-31 renal): 9.08 µM | GI50 (NCI-H322M lung): 1510 nM | TGI (NCI-H322M lung): 5.81 µM | GI50 (M14 melanoma): 1490 nM | TGI (M14 melanoma): 7.78 µM | GI50 (A549 NSCLC): 1410 nM | TGI (A549 NSCLC): 4.16 µM | GI50 (T-47D breast): 667 nM | TGI (T-47D breast): 2350 nM | GI50 (RXF 393 renal): 471 nM | TGI (RXF 393 renal): 1410 nM | GI50 (HOP-62 NSCLC): 1200 nM | TGI (HOP-62 NSCLC): 4.99 µM | GI50 (SF-539 CNS): 2040 nM | TGI (SF-539 CNS): 12.3 µM | GI50 (MDA-MB-468 breast): 365 nM | TGI (MDA-MB-468 breast): 1090 nM | GI50 (A498 renal): 1520 nM | TGI (A498 renal): 3.42 µM | GI50 (MDA-MB-231 breast): 1090 nM | TGI (MDA-MB-231 breast): 2910 nM | GI50 (HS 578T breast): 736 nM | TGI (HS 578T breast): 2230 nM | GI50 (SNB-19 CNS): 1990 nM | TGI (SNB-19 CNS): 5.21 µM | GI50 (SK-MEL-28 melanoma): 988 nM | TGI (SK-MEL-28 melanoma): 2520 nM
